Common to all, as to type: biochemical
One experiment addresses T1, murine iNOS (Mus musculus, UniProt P29477).
T1 construct: made in house; host or cells: E. coli (plasmid pCWiNOS)
As to the kind of experiment: NOS enzyme inhibitory assay (hemoglobin capture), iNOS. The note with it: for IC50: murine iNOS, 10 μM L-arginine. The procedure, abridged: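 Recombinant murine iNOS, overexpressed in E. coli from plasmid pCWiNOS (induced with 1 mM IPTG) and purified on a 2′,5′-ADP-Sepharose 4B column with elution by 10 mM 2′(3′)-AMP, 10 μM BH4 and 0.3 M NaCl, was used to test inhibitors. Nitric oxide production was followed with the hemoglobin capture assay, and IC50 values were determined.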

The target of a further experiment is T2, rat nNOS (Rattus norvegicus, UniProt P29476).
T2 construct: made in house; host or cells: E. coli (plasmid pCWnNOS)
As to the kind of experiment: NOS enzyme inhibitory assay (hemoglobin capture), nNOS. The note with it: for IC50: rat nNOS, 10 μM L-arginine. A digest of the protocol: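 Recombinant rat nNOS expressed in E. coli and purified by calmodulin-Sepharose and 2′,5′-ADP-Sepharose chromatography. NO production followed by hemoglobin capture; inhibition expressed as Ki, selectivity as ratio of Ki values.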

The target in the next experiment is T3, bovine eNOS (Bos taurus, UniProt P29473).
T3 construct: made in house; host or cells: E. coli (plasmid Bov-eNOSpCW)
As to the kind of experiment: NOS enzyme inhibitory assay (hemoglobin capture), eNOS. Conditions: for IC50: bovine eNOS, 10 μM L-arginine, * = no inhibition observed up to the concentration listed.

[1] abbreviates: Table 1b, ratio of Ki values eNOS/nNOS.
Where [2] appears, read: Table 1b, ratio of Ki values iNOS/nNOS.
The mark [3] stands for this setting: Table 1a, apparent Ki calculated from IC50, Km […], read-out: calc. Ki iNOS.
The mark [4] stands for this setting: Table 1a, apparent Ki calculated from IC50, Km […], read-out: calc. Ki nNOS.
Where [5] appears, read: Table 1a, apparent Ki calculated from IC50, Km 1.7 μM, read-out: calc. Ki eNOS.

Like-named read-outs stand apart in the source and are kept apart here.

`Cc1cccc(CNCCN[C@@H]2CNC[C@@H]2Cc2cc(C)cc(N)n2)c1.Cl.Cl.Cl.Cl` (racemic) [Compound P-53]: the Ki on murine iNOS (Table 1b, read-out: Ki iNOS) was determined as 9.01 µM; on rat nNOS (Table 1b, read-out: Ki nNOS), 0.159 µM; on bovine eNOS (Table 1b, read-out: Ki eNOS), 71.6 µM. Further, the Selectivity n/e on rat nNOS (setting [1]) is recorded as 450.5. Moreover, the Selectivity n/i at rat nNOS (setting [2]) was 56.7.
Regarding `Cc1cccc(CNCCN[C@H]2CNC[C@@H]2Cc2cc(C)cc(N)n2)c1.Cl.Cl.Cl.Cl` (racemic) [Compound P-59], the Ki on murine iNOS (Table 1b, read-out: Ki iNOS) was 83.9 µM; at rat nNOS (Table 1b, read-out: Ki nNOS), 0.66 µM; at bovine eNOS (Table 1b, read-out: Ki eNOS) it was 202 µM. The Selectivity n/e at rat nNOS (setting [1]) worked out at 305.5. Besides, at rat nNOS (setting [2]), the Selectivity n/i was 127.1.
Turning to `Nc1cccc(CC2CNCC2NC2CCNC2)n1` (racemic) [Compound P-20], the Ki on murine iNOS (setting [3]) was 234 µM; at rat nNOS (setting [4]) it was 12.8 µM; at bovine eNOS (setting [5]), 625 µM. Further, the figures for the half-inhibitory concentration (IC50) on murine iNOS (Table 1a), on rat nNOS (Table 1a) and against bovine eNOS (Table 1a) were 516 µM, 112 µM and 4300 µM, respectively. In addition, the Selectivity n/e on rat nNOS (Table 1a, Ki(eNOS)/Ki(nNOS)) is 48.67. Moreover, at rat nNOS (Table 1a, Ki(iNOS)/Ki(nNOS)), the Selectivity n/i was found to be 18.21.
As for `Cc1cc(N)nc(C[C@H]2CNC[C@@H]2NCCNCc2ccc(Cl)cc2Cl)c1.Cl.Cl.Cl.Cl` (racemic) [Compound P-66], the Ki amounted to 44.2 µM on murine iNOS (Table 1b, read-out: Ki iNOS); 0.483 µM at rat nNOS (Table 1b, read-out: Ki nNOS); 76.1 µM at bovine eNOS (Table 1b, read-out: Ki eNOS). In addition, the Selectivity n/e at rat nNOS (setting [1]) is given as 158. Also, on rat nNOS (setting [2]), the Selectivity n/i is listed as 91.6.
`Nc1cccc(C[C@H]2CNC[C@H]2NCCNCc2ccccc2)n1` (racemic) [Compound P-33]: the Ki at murine iNOS (setting [3]) is 161 µM; on rat nNOS (setting [4]), 1.18 µM; on bovine eNOS (setting [5]), above 10200 µM. For the same compound, the values for the IC50 against murine iNOS (Table 1a), at rat nNOS (Table 1a) and on bovine eNOS (Table 1a) were 355 µM, 10.2 µM and above 70000 µM, respectively. The same compound showed a Selectivity n/e on rat nNOS (Table 1a, Ki(eNOS)/Ki(nNOS)) above 8619.5. Further, the Selectivity n/i on rat nNOS (Table 1a, Ki(iNOS)/Ki(nNOS)) was found to be 136.36.
In the case of `Nc1cccc(CC2CNCC2NC2CCN(Cc3ccccc3)C2)n1` (racemic) [Compound P-22], the Ki at murine iNOS (setting [3]) is 209 µM; at rat nNOS (setting [4]), 17.9 µM; at bovine eNOS (setting [5]) it was 109 µM. In addition, the values for the IC50 at murine iNOS (Table 1a), against rat nNOS (Table 1a) and on bovine eNOS (Table 1a) were 461 µM, 156 µM and 748 µM, respectively. Further, the Selectivity n/e at rat nNOS (Table 1a, Ki(eNOS)/Ki(nNOS)) is given as 6.07. At rat nNOS (Table 1a, Ki(iNOS)/Ki(nNOS)), this compound returned a Selectivity n/i of 11.66.
As to `Cc1cc(N)nc(CC2CNCC2NCCNCc2ccc(Cl)c(Cl)c2)c1.Cl.Cl.Cl.Cl` (racemic) [Compound P-60], the Ki turned out to be 3.56 µM on murine iNOS (Table 1b, read-out: Ki iNOS); 0.157 µM on rat nNOS (Table 1b, read-out: Ki nNOS); 40.8 µM on bovine eNOS (Table 1b, read-out: Ki eNOS). The Selectivity n/e at rat nNOS (setting [1]) worked out at 260. At rat nNOS (setting [2]), the Selectivity n/i is given as 22.6.
Regarding `Cc1cc(N)nc(C[C@H]2CNC[C@@H]2NCCN)c1.Cl.Cl.Cl.Cl` (racemic) [Compound P-47], the values for the Ki at murine iNOS (setting [3]), on rat nNOS (setting [4]) and on bovine eNOS (setting [5]) were 32 µM, 0.61 µM and 263 µM, respectively. The concentration for half-maximal inhibition (IC50) (commonly the concentration at which inhibition is half-maximal) was 70.6 µM against murine iNOS (Table 1a), 5.34 µM on rat nNOS (Table 1a) and 1810 µM against bovine eNOS (Table 1a). Besides, on rat nNOS (Table 1a, Ki(eNOS)/Ki(nNOS)), the Selectivity n/e is reported as 430.7. Besides, the Selectivity n/i on rat nNOS (Table 1a, Ki(iNOS)/Ki(nNOS)) was 52.5.
On to `Cc1cc(N)nc(C[C@H]2CNC[C@H]2NCCNCc2ccc(F)cc2)c1.Cl.Cl.Cl.Cl` (racemic) [Compound P-51], for which the Ki on murine iNOS (Table 1b, read-out: Ki iNOS) was determined as 7.97 µM; on rat nNOS (Table 1b, read-out: Ki nNOS), 0.144 µM; on bovine eNOS (Table 1b, read-out: Ki eNOS), 130 µM. Also, the Selectivity n/e on rat nNOS (setting [1]) is recorded as 904.5. Moreover, the Selectivity n/i at rat nNOS (setting [2]) is given as 55.4.
Turning to `Nc1cccc(C[C@H]2CNC[C@@H]2NCCNCc2ccccc2)n1` (racemic) [Compound P-18], the Ki was 166 µM at murine iNOS (setting [3]) and 14.5 µM at rat nNOS (setting [4]). Further, the IC50 on murine iNOS (Table 1a) is 366 µM; against rat nNOS (Table 1a), 126 µM; at bovine eNOS (Table 1a) it was above 70000 µM. Further, the Selectivity n/e on rat nNOS (Table 1a, Ki(eNOS)/Ki(nNOS)) was above 703.88. Also, the Selectivity n/i on rat nNOS (Table 1a, Ki(iNOS)/Ki(nNOS)) came out at 11.49.
In the case of `Cc1cc(N)nc(CC2CNCC2N(C)CCN(C)CCc2cccc(F)c2)c1.Cl.Cl.Cl.Cl` (racemic) [Compound P-74], the Ki on murine iNOS (Table 1b, read-out: Ki iNOS) was determined as 56.6 µM; at rat nNOS (Table 1b, read-out: Ki nNOS), 1.21 µM; on bovine eNOS (Table 1b, read-out: Ki eNOS), 48.9 µM. Besides, the Selectivity n/e at rat nNOS (setting [1]) is recorded as 40.27. In addition, on rat nNOS (setting [2]), the Selectivity n/i is listed as 46.7.
Take `Nc1cccc(CC2CNCC2NCC(N)Cc2ccccc2)n1` (racemic) [Compound P-17]: the Ki at murine iNOS (setting [3]) was 417 µM; at rat nNOS (setting [4]), 20.6 µM; at bovine eNOS (setting [5]), above 1450 µM. In addition, the IC50 at murine iNOS (Table 1a) was 919 µM; on rat nNOS (Table 1a), 179 µM; against bovine eNOS (Table 1a), above 10000 µM. Moreover, at rat nNOS (Table 1a, Ki(eNOS)/Ki(nNOS)), the Selectivity n/e is recorded as above 70.64. On rat nNOS (Table 1a, Ki(iNOS)/Ki(nNOS)), this compound came in with a Selectivity n/i of 20.25.
As to `Cc1cc(N)nc(C[C@H]2CNC[C@H]2N(C)CCNCCc2cccc(F)c2)c1.Cl.Cl.Cl.Cl` (racemic) [Compound P-75], the Ki at murine iNOS (Table 1b, read-out: Ki iNOS) amounted to 38.2 µM; on rat nNOS (Table 1b, read-out: Ki nNOS), 0.326 µM; on bovine eNOS (Table 1b, read-out: Ki eNOS) it was 92.4 µM. Besides, the Selectivity n/e at rat nNOS (setting [1]) stood at 283.5. In addition, the Selectivity n/i at rat nNOS (setting [2]) is on record as 117.3.
Consider `Cc1cc(N)nc(CC2CNCC2NCC(C)NCc2ccc(Cl)cc2)c1.Cl.Cl.Cl.Cl` (racemic) [Compound P-68], for which the Ki on murine iNOS (Table 1b, read-out: Ki iNOS) amounted to 20.5 µM; at rat nNOS (Table 1b, read-out: Ki nNOS), 0.589 µM; on bovine eNOS (Table 1b, read-out: Ki eNOS), 16.5 µM. Besides, the Selectivity n/e at rat nNOS (setting [1]) is listed as 28. For the same compound, the Selectivity n/i on rat nNOS (setting [2]) was 34.7.

The record behind these values is US7994326B2 (Northwestern University, priority 2003, dated 2011).
